Test results as given in patent US5639904A, “1-aryloxy-3-alkylamino-2-propanol nitrate esters, the use thereof and corresponding pharmaceutical composition” (Prodesfarma, S.A., priority 1993, dated 1997).
Read-outs that look alike come from different tables or passages of the source.

How the values were obtained:
Format in all cases: cell-based
[1] = test system: helical strips of swine coronary artery (potassium-induced contraction); experiment: In vitro coronary vasodilator activity: antagonism of contractions induced by potassium (35 mM); settings: Sus scrofa; for IC50: read-out: inhibitory concentration 50 (IC50), effect on K+-induced contractions in swine coronary artery; for inhibition at 100 µM: read-out: inhibition of K+-induced contractions in swine coronary artery
Protocol: (§1) The coronary vasodilator activity of the synthesized products was determined in vitro from their capacity to antagonize the contractions induced by a) potassium (35 mM) b) calcium (1.5 mM) and c) serotonin (1 mM) in helical strips of swine coronary artery, using Nitroglycerine and Nicorandil as reference drugs (Table 1).

[2] = test system: helical strips of swine coronary artery (serotonin-induced contraction); experiment: In vitro coronary vasodilator activity: antagonism of contractions induced by serotonin (1 mM); settings: Sus scrofa; for IC50: read-out: inhibitory concentration 50 (IC50), effect on serotonin-induced contractions in swine coronary artery
Protocol: as §1

[3] = test system: helical strips of swine coronary artery (calcium-induced contraction); experiment: In vitro coronary vasodilator activity: antagonism of contractions induced by calcium (1.5 mM); settings: Sus scrofa; for IC50: read-out: inhibitory concentration 50 (IC50), effect on Ca2+-induced contractions in swine coronary artery
Protocol: as §1

[4] = biological target: T1, β1-adrenergic (isolated guinea pig left auricle) (Cavia porcellus, UniProt H0W3H1); experiment: In vitro β1-adrenergic blocking activity: antagonism of isoprenaline-induced positive inotropic response in electrically stimulated isolated left auricle
T1 construct: electrically stimulated isolated left auricle of the guinea pig; from tissue; host or cells: isolated left auricle of guinea pig
Text: In parallel tests, the effect of the said compounds on the positive isoprenaline-induced inotropic response in electrically stimulated isolated left auricle of the guinea pig, as evidence of β1 -adrenergic blocking activity (Table 2) was established.
BLOCKING ACTIVITY IN VITRO

[5] = electrically stimulated isolated guinea pig left auricle, read-out: inhibitory concentration 50 (IC50), antagonism of isoprenaline-induced positive inotropic response

T1 sequence (H0W3H1 1-470): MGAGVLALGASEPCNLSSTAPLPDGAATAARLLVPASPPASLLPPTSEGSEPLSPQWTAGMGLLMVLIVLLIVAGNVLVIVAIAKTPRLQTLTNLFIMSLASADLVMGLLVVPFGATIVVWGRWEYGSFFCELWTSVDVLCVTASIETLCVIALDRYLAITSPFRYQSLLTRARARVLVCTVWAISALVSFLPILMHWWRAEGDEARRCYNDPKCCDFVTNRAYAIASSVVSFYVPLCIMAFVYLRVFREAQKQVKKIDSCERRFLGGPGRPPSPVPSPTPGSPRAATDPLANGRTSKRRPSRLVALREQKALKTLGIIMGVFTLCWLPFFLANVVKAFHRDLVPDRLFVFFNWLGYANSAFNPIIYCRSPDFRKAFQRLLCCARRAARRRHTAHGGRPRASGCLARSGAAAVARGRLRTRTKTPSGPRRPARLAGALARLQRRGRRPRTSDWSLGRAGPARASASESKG

IC50 ([1]; potassium 35 mM) [µM] | IC50 ([2]; serotonin 1 mM) [µM] | IC50 [4, 5] [µM] | Structure (SMILES) | other results
40.7 |  |  | CC(C)NCC(O)COc1c(CC(=O)NCCO[N+](=O)[O-])ccc2ccccc12 (stereo not drawn) [1-(2-hydroxy-3-isopropylamino)propoxy-N-(2-nitroxyethyl)-2-naphthalene acetamide] | 
 |  |  | CC(C)NCC(O)COc1ccc(COCC(CO[N+](=O)[O-])O[N+](=O)[O-])cc1 (stereo not drawn) [1-isopropylamino-3-[4-(2,3-dinitroxy)-propoxymethyl]phenoxy-2-propanol] | IC50 [1]: 0.5 µM; IC50 [2]: 1.6 µM; IC50 [3]: 1.7 µM; IC50 [4]: 4.8 µM
3.4 | 13.3 | 0.6 | CC(C)NCC(O)COc1ccc(COCCO[N+](=O)[O-])cc1 (stereo not drawn) [1-isopropylamino-3-[4-(2-nitroxy)ethoxymethyl]phenoxy-2-propanol] | 
7.1 | 6 | 0.7 | CC(C)NCC(O)COc1ccc(COCCCO[N+](=O)[O-])cc1 (stereo not drawn) [1-isopropylamino-3-[4-(3-nitroxy)propoxymethyl]phenoxy-2-propanol] | inhibition at 30 µM ([3]; at 30 μM, calcium 1.5 mM, read-out: inhibition of Ca2+-induced contractions in swine coronary artery): 50%
28.6 |  |  | CC(C)NCC(O)COc1ccc2ccccc2c1CC(=O)NCCO[N+](=O)[O-] (stereo not drawn) [2-(2-hydroxy-3-isopropylamino)propoxy-N-(2-nitroxyethyl)-1-naphthalene acetamide] | inhibition at 100 µM ([2]; serotonin 1 mM): 50%; inhibition at 10 µM ([3]; at 10 μM, calcium 1.5 mM, read-out: inhibition of Ca2+-induced contractions in swine coronary artery): 20%; inhibition at 100 µM ([4]; at 0.1 mM, electrically stimulated isolated guinea pig left auricle): 25%
0.3 | 5.7 | 7.6 | CC(C)NCC(O)COc1ccc(CC(=O)OCCO[N+](=O)[O-])cc1 (stereo not drawn) [2-nitroxyethyl 4-[(2-hydroxy-3-isopropylamino)propoxy]phenyl acetate] | IC50 ([3]; calcium 1.5 mM): 13.1 µM
 |  |  | CC(C)NCC(O)COc1ccc(CC(N)=O)cc1 (stereo not drawn) [Atenolol, reference compound] | inhibition at 100 µM [1]: 25%; IC50 [4]: 0.7 µM
 |  |  | COCCc1ccc(OCC(O)CNC(C)C)cc1 (stereo not drawn) [Metoprolol, reference compound] | inhibition at 100 µM ([1]; at 0.1 mM, potassium 35 mM): 30%; inhibition at 100 µM ([2]; serotonin 1 mM): 20%
49.7 | 14.7 |  | O=C(NCCO[N+](=O)[O-])c1cccnc1 [Nicorandil, reference compound] | IC50 ([3]; calcium 1.5 mM): 169 µM

Structure (SMILES) | IC50 ([1]; potassium 35 mM) [µM] | IC50 ([2]; serotonin 1 mM) [µM] | IC50 [4, 5] [µM] | other results
O=[N+]([O-])OCC(CO[N+](=O)[O-])O[N+](=O)[O-] [Nitroglycerine, reference compound] | 1.3 | 1 |  | inhibition at 100 µM ([3]; at 0.1 mM, calcium 1.5 mM, read-out: inhibition of Ca2+-induced contractions in swine coronary artery): 50%
